Data on one molecule can be found in patent US20250092044A1, “Kinase Inhibitors” (Incyte Corporation, priority 2023, published 2025).

One data set has as its target CYP3A4 (Homo sapiens (Human), UniProt P08684). As to the kind of experiment: Time Dependent Inhibition (TDI) of CYP. It counts as in vitro ADME. The settings on record: Kobs; human liver microsomes, 10 μM, 30 min pre-incubation with NADPH. The source says:
Inhibition of P450 enzymes can be classified as either reversible or time-dependent inhibition (TDI). This in vitro assay is designed to detect an increase in CYP inhibition as a result of biotransformation and/or bioactivation (TDI). Potential mechanisms for this include the formation of a tight-binding, quasi-irreversible inhibitory metabolite complex or the inactivation of P450 enzymes by covalent adduct formation of metabolites. While this experiment employs a 10-fold dilution to diminish metabolite concentrations and therefore effects of reversible inhibition, it is possible (but not common) that a metabolite that is an extremely potent CYP inhibitor could result in a positive result.
The results are from a cocktail of CYP specific probe substrates at 4 times their Km concentrations for CYP2C9 (diclofenac), CYP2C19 (S-mephenytoin), CYP2D6 (bufuralol) and CYP3A4 (midazolam) using human liver microsomes (HLM). The HLMs were pre-incubated with test compound(s) at a concentration 10 μM for 30 min in the presence (+N) or absence (−N) of a NADPH regenerating system, diluted 10-fold, and incubated for 8 min in the presence of the substrate cocktail with the addition of a fresh aliquot of NADPH regenerating system. A calibration curve of metabolite standards was used to quantitatively measure the enzyme activity using LC-MS/MS. In addition, incubations with known time dependent inhibitors, tienilic aicd (CYP2C9), ticlopidine (CYP2C19), paroxetine (CYP2D6), and troleandomycin (CYP3A4), used as positive controls were pre-incubated 30 min with or without a NADPH regenerating system.
The percentage of control CYP2C9, CYP2C19, CYP2D6, and CYP3A4 activity remaining following pre-incubation of the compounds with NADPH is corrected for the corresponding control vehicle activity and then calculated based on 0 minutes as 100%. A linear regression plot of the natural log of % activity remaining versus time for each isozyme is used to calculate the slope. The −slope is equal to the rate of enzyme loss, or the Kobs. […] Examples 29-30 have Kobs from 0.005-0.02 indicating a medium to low potential for time dependent inhibition of CYPs corresponding to 70-90% CYP function remaining.
For orientation: Liver microsomes are a subcellular fraction often used to study metabolism.

In data set [1] the target is catalytic domain (JH1) of human JAK2 (Homo sapiens (Human), UniProt O60674). The data set can be described thus: JAK2 LanthaScreen JH1 Binding Assay. The settings on record: read-out: JH1 Bind IC50. In short, it runs like this:
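FLAG-tagged biotinylated JH1 (aa 826-1132, baculovirus-expressed), 1.5 nM, with serially diluted compound, 50 nM fluorescent tracer and 0.5 nM streptavidin-Tb in pH 7.5 Tris buffer, 2 h at 25 °C; nonspecific binding with 2 mM ATP. TR-FRET read, IC50 by four-parameter fit.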

Data set [2] concerns the target FLT3 (Homo sapiens (Human), UniProt P36888). The data set can be described thus: FLT3 Enzymatic Assay. It is filed as biochemical. Conditions: 1 mM ATP. The procedure, abridged:
(§1)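 Room-temperature HTRF kinase assay (665/620 nm ratio) with 0.011 nM FLT3, 1 mM ATP, 500 nM biotinylated TK substrate in HEPES pH 7.0 buffer with MgCl2 and DTT; 0.5% DMSO final. Read after 60 min incubation; IC50 fitted from percent control activity versus log concentration, no-ATP wells as negative control.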

For data set [3], the system named is FLT3. The data set can be described thus: FLT3 Enzymatic Assay. It is filed as biochemical. The procedure, abridged: as §1
Data set [4] concerns the target TRKA (Homo sapiens (Human), UniProt P04629). The data set can be described thus: TRKA Enzymatic Assay. It counts as biochemical. The settings on record: 1 mM ATP. The procedure, abridged:
(§2)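 Reaction contained 0.58 nM TRKA, 1 mM ATP, 500 nM biotinylated TK substrate and 62.5 nM SEB reagent in HEPES 50 mM pH 7.0 with 10 mM MgCl2, 1 mM DTT and 0.1 mM orthovanadate, 0.5% DMSO, ATP-initiated. After 60 min at room temperature, the TR-FRET 665/620 nm ratio was read. IC50 was fitted from percent control activity versus log concentration, with DMSO and no-ATP wells as controls.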

Data set [5] relates to TRKA. The data set can be described thus: TRKA Enzymatic Assay. It counts as biochemical. In short, it runs like this: as §2

The structures appear in SMILES notation.

CYP3A4, sequence (P08684 whole entry): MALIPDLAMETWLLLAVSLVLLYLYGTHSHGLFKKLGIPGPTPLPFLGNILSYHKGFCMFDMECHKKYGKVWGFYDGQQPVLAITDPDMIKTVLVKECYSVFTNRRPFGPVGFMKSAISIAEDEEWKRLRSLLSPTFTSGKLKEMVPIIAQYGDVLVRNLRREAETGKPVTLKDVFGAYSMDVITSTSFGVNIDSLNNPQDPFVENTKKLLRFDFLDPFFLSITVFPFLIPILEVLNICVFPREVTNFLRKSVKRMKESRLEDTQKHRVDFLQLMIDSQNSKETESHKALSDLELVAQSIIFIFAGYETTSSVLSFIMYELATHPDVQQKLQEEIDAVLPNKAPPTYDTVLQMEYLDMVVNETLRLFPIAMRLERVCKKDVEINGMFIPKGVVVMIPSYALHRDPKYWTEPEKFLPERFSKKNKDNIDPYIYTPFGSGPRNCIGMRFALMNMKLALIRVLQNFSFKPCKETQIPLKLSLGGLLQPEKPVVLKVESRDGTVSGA
TRKA (Homo sapiens (Human), UniProt P04629), sequence (P04629 33-796, species assumed): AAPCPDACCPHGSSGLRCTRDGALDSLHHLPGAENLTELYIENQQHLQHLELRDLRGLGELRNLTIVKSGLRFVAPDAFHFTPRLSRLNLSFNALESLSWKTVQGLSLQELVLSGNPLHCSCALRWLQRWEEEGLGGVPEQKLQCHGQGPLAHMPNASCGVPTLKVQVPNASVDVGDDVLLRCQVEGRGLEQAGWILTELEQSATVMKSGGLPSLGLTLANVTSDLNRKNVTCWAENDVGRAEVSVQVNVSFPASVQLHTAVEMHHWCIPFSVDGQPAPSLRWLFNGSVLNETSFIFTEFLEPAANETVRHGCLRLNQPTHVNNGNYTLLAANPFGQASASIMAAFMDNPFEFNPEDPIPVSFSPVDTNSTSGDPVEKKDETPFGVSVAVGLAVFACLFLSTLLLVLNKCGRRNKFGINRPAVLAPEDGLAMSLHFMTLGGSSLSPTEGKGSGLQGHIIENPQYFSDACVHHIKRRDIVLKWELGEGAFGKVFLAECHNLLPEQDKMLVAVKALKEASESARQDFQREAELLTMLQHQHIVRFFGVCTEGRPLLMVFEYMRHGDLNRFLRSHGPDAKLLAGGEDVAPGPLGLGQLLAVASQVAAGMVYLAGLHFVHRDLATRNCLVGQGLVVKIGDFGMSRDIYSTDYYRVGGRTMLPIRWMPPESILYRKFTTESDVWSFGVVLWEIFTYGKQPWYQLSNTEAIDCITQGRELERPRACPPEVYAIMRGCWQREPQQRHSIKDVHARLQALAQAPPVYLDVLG
catalytic domain (JH1) of human JAK2, sequence (O60674 826-1132): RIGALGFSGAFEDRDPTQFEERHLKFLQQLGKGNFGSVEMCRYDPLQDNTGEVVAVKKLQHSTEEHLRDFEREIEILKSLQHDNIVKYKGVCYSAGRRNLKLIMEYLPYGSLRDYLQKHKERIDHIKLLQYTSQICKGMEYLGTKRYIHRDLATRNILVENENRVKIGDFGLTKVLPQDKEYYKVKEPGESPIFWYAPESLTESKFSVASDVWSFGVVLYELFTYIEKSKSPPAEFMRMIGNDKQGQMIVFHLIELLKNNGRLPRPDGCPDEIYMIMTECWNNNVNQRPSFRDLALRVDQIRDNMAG
FLT3 (Homo sapiens (Human), UniProt P36888), sequence (P36888 27-993, species assumed): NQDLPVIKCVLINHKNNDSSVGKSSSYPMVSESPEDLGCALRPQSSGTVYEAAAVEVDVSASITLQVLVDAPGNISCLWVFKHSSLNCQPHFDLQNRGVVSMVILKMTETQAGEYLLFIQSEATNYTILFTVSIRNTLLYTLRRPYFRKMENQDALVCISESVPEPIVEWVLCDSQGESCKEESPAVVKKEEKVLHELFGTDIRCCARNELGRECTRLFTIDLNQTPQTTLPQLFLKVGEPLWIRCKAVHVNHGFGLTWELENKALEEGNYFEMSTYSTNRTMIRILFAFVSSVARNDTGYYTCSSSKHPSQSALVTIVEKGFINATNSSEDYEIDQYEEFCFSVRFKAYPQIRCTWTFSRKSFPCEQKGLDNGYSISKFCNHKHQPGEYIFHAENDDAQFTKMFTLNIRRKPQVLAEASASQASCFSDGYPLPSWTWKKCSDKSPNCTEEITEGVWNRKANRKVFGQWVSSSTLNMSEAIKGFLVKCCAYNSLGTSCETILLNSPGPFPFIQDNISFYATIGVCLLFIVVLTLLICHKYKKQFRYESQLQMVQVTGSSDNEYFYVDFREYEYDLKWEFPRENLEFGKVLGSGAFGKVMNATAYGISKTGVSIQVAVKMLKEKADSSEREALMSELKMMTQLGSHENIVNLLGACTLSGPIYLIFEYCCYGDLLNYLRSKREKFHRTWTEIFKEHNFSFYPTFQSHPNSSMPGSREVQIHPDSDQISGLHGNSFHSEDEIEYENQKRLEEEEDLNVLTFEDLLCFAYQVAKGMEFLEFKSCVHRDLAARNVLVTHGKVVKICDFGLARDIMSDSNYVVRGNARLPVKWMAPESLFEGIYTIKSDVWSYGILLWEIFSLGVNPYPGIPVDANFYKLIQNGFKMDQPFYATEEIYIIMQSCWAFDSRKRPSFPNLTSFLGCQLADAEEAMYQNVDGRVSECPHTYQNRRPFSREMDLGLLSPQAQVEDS

In the case of `[2H]C([2H])([2H])n1c(=O)n([C@@H]2CC[C@@H](NC(=O)OC)C2)c2c3c(-c4ccc5c(cnn5C(C)C)c4)c(-c4ccc(CN(C)C)cc4)[nH]c3ncc21` [Example 26, Methyl ((1R,3R)-3-(7-(4-((dimethylamino)methyl)phenyl)-8-(1-isopropyl-1H-indazol-5-yl)-3-(methyl-d3)-2-oxo-3,6-dihydroimidazo[4,5-d]pyrrolo[2,3-b]pyridin-1(2H)-yl)cyclopentyl)carbamate], the “TDI 3A4” value on CYP3A4 is “⋄ (≤0.005)”. Also, the figures for the IC50 (in data set [1]; against FLT3 [2]; on TRKA [4]) were over 1000 nM, 250 to 1250 nM and 1250 to 2500 nM, respectively. In the data set on FLT3 [3], the “Selectivity FLT3/JH2 V617F” value is “**** (selectivity of >1750-fold to ≤5000-fold)”. Further, the “Selectivity TRKA/JH2 V617F” value in the data set with TRKA [5] was “***** (selectivity of >5000-fold to ≤12500-fold)”.
